Measured values: patent US20100331305A1, “OXO-HETEROCYCLE FUSED PYRIMIDINE COMPOUNDS, COMPOSITIONS AND METHODS OF USE” (Genentech, Inc., priority 2009, published 2010)
Where “and” joins values, the source holds several entries; their conditions need not be identical. Identical values can stand only once.

Tests used:
[1] = target: mTOR enzyme (mTOR(1360-2549)+GBL) (Homo sapiens, UniProt P42345); test: In vitro mTOR kinase assay (TR-FRET); format: biochemical; conditions: 0.25 nM mTOR+GBL, 8 uM ATP; values tied to compounds by order of Table 1; 'x or y' = two alternative values for separated diastereomers of unassigned stereochemistry; read-out: activity level (Ki) in the mTOR kinase assay
mTOR enzyme (mTOR(1360-2549)+GBL), sequence (P42345 1360-2549, species assumed): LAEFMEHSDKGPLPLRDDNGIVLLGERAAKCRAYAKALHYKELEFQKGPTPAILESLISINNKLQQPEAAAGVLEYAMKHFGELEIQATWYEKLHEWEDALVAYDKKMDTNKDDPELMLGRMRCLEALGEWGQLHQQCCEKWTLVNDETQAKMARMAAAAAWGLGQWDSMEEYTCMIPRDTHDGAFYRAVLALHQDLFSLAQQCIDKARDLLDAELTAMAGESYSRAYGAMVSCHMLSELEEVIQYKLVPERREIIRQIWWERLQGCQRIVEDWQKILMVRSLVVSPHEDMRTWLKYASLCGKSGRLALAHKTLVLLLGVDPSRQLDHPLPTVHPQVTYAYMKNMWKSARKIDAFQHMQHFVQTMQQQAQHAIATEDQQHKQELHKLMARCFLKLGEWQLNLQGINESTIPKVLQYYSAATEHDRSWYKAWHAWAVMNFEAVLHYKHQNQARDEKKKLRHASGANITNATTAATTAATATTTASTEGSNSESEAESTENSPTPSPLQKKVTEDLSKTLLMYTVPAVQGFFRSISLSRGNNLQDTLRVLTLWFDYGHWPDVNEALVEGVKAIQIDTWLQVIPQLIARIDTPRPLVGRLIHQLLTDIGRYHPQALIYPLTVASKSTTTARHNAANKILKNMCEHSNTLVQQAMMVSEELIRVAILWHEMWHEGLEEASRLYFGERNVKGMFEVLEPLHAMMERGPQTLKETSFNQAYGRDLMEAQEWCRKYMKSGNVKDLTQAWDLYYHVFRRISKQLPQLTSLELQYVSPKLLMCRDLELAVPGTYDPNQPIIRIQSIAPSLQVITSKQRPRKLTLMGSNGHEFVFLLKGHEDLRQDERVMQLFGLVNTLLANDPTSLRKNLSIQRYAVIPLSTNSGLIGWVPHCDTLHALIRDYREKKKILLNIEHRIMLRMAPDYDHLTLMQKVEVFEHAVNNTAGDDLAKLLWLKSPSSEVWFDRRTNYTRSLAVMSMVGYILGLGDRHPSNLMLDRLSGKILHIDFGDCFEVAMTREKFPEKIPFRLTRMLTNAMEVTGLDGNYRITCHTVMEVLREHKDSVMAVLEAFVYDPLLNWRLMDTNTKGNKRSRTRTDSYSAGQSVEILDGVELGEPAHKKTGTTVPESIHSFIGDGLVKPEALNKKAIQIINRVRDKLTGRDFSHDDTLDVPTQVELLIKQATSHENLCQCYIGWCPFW
mTOR enzyme (mTOR(1360-2549)+GBL), sequence (Q9BVC4 whole entry partner, species assumed): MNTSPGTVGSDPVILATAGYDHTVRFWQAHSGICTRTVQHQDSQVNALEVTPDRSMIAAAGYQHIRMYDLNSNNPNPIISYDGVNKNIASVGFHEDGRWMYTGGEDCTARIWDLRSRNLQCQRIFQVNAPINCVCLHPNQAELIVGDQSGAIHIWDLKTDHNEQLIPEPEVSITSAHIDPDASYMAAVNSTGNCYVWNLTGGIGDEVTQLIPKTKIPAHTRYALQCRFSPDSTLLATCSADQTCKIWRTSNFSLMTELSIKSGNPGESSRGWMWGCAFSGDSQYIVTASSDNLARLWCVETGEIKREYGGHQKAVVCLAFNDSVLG
Description: a. In Vitro mTOR Kinase Assay
The reaction is stopped by an addition of a Terbium-labeled phospho-specific antibody, e.g., Tb-labeled anti-p4E-BP1 T37/T46, (Invitrogen, product #PR8835A), EDTA, and TR-FRET buffer solution (Invitrogen, Product #PR3756B). Product formation is detected by way of time-resolved fluorescence resonance energy transfer (TR-FRET), which occurs when the phosphorylated substrate and labeled antibody are in close proximity due to phospho-specific binding. Enzymatic activity is measured as an increase in TR-FRET signal using a Perkin Elmer Envision plate reader.
Compound activity is tested in 10 point dose curves starting at the highest final concentration of 10 uM. They are serially diluted in 100% DMSO prior to further dilution with assay buffer. […] 8 μL of solution containing 2 nM Tb-anti-p4E-BP1 antibody & 10 mM EDTA diluted TR-FRET buffer is then added and incubated for 30 minutes to stop the reaction. The plate is scanned with the Envision plate reader. Ki values are calculated in Assay Explorer using the Morrison ATP-competitive tight binding equation for Ki apparent determination.

PC3 cells = test: In vitro cell proliferation assay; format: cell-based, human; conditions: values tied to compounds by order of Table 1
Method: c. In Vitro Cell Proliferation Assay Efficacy of Formula I compounds were measured by a cell proliferation assay employing the following protocol: 1. An aliquot of 20 μl of cell culture containing about 10^3 cells (PC3 or MDAMB361.1) in medium was deposited in each well of a 384-well, opaque-walled plate. 2. Control wells were prepared containing medium and without cells; Cells were allowed to settle overnight. 3. The compound was added to the experimental wells and incubated for 3 days. 4. The plates were equilibrated to room temperature for approximately 30 minutes. 5. A volume of CellTiter-Glo Reagent equal to the volume of cell culture medium present in each well was added. […] The contents were mixed for 2 minutes on an orbital shaker to induce cell lysis. 7. The plate was incubated at room temperature for 20 minutes to stabilize the luminescence signal. 8. Luminescence was recorded and reported in graphs as RLU=relative luminescence units. Alternatively, cells were seeded at optimal density in a 96 well plate and incubated for 4 days in the presence of test compound. Alamar BlueTM was subsequently added to the assay medium, and cells were incubated for 6 h before reading at 544 nm excitation, 590 nm emission. EC50 values were calculated using a sigmoidal dose response curve fit.

[2] = Homo sapiens, PC-3, with PC3 cells

SMILES	Ki [1]	EC50 (PC3 cells; [2]) [nM]	EC50 (PC3 cells; with PC3 cells) [nM]
C[C@H]1COCCN1c1nc(-c2ccc(NC(=O)NC3(CO)CC3)cc2)nc2c1CCC1(CC1)O2 [Example 70, (S)-1-(1-(hydroxymethyl)cyclopropyl)-3-(4-(4′-(3-methylmorpholino)-5′,6′-dihydrospiro[cyclopropane-1,7′-pyrano[2,3-d]pyrimidine]-2′-yl)phenyl)urea]	20 nM	1600	
CCNC(=O)Nc1ccc(-c2nc3c(c(N4CCOC[C@@H]4C)n2)COC(COCc2ccccc2)C3)cc1 (stereo partly drawn) [1-(4-(7-(benzyloxymethyl)-4-((S)-3-methylmorpholino)-7,8-dihydro-5H-pyrano[4,3-d]pyrimidin-2-yl)phenyl)-3-ethylurea]	16 nM	585	
CC1(C)OCc2c(N3CCOCC3)nc(-c3ccc4nc(N)oc4c3)nc21 [Example 115, 6-(7,7-dimethyl-4-morpholino-5,7-dihydrofuro[3,4-d]pyrimidin-2-yl)benzo[d]oxazol-2-amine]	269 nM	146	
CCNC(=O)Nc1ccc(-c2nc(N3CCOC[C@@H]3C)c3c(n2)[C@](C)(CCN(C)CC)OC3)cc1 [Example 78 eq (S), 1-ethyl-3-(4-((S)-7-(2-(ethyl(methyl)amino)ethyl)-7-methyl-4-((S)-3-methylmorpholino)-5,7-dihydrofuro[3,4-d]pyrimidin-2-yl)phenyl)urea]	21 nM		1300
CCNC(=O)Nc1ccc(-c2nc3c(c(N4CCOC[C@@H]4CC)n2)CCCO3)cc1 [Example 2, (S)-1-ethyl-3-(4-(4-(3-ethylmorpholino)-6,7-dihydro-5H-pyrano[2,3-d]pyrimidin-2-yl)phenyl)urea]	1 nM	144	
CCNC(=O)Nc1ccc(-c2nc(N3CCOCC3C)c3c(n2)C(C)(CCOc2ccccc2)OC3)cc1 (centres unmarked) [Example 91 ft^1, 1-ethyl-3-(4-(7-methyl-4-(3-methylmorpholino)-7-(2-phenoxyethyl)-5,7-dihydrofuro[3,4-d]pyrimidin-2-yl)phenyl)urea]		297	
CNC(=O)Nc1ccc(-c2nc3c(c(N4CCOC[C@@H]4C)n2)COCC3)cc1 [Example 58, (S)-1-methyl-3-(4-(4-(3-methylmorpholino)-7,8-dihydro-5H-pyrano[4,3-d]pyrimidin-2-yl)phenyl)urea]	7 nM	173	
CCNC(=O)Nc1ccc(-c2nc3c(c(N4C[C@@H]5C[C@H]4CO5)n2)CCCO3)cc1 [Example 3, 1-(4-(4-((1S,4S)-2-oxa-5-azabicyclo[2.2.1]heptan-5-yl)-6,7-dihydro-5H-pyrano[2,3-d]pyrimidin-2-yl)phenyl)-3-ethylurea]	22 nM	1200	
COCC[C@]1(C)OCc2c(N3CCOC[C@@H]3C)nc(-c3ccc4nc(N)[nH]c4c3)nc21 [Example 124 hv^1]	24 nM and 81 nM	577	
CCNC(=O)Nc1ccc(-c2nc3c(c(N4CCOCC4)n2)CCC2(CC2)O3)cc1 [Example 14, 1-ethyl-3-(4-(4′-morpholino-5′,6′-dihydrospiro[cyclopropane-1,7′-pyrano[2,3-d]pyrimidine]-2′-yl)phenyl)urea]	3 nM	84	
CONC(=O)Nc1ccc(-c2nc3c(c(N4CCOC[C@@H]4C)n2)CCC2(CC2)O3)cc1 [Example 67, (S)-1-methoxy-3-(4-(4′-(3-methylmorpholino)-5′,6′-dihydrospiro[cyclopropane-1,7′-pyrano[2,3-d]pyrimidine]-2′-yl)phenyl)urea]	10 nM	853	
C=CC[C@@]1(C)OCc2c(N3CCOCC3)nc(-c3ccc(NC(=O)NCC)cc3)nc21 [Example 73 eb (R), (R)-1-(4-(7-allyl-7-methyl-4-morpholino-5,7-dihydrofuro[3,4-d]pyrimidin-2-yl)phenyl)-3-ethylurea]		96.1	
C[C@H]1COCCN1c1nc(-c2ccc(Nc3nccc(=O)[nH]3)cc2)nc2c1COCC2 [Example 28, (S)-2-(4-(4-(3-methylmorpholino)-7,8-dihydro-5H-pyrano[4,3-d]pyrimidin-2-yl)phenylamino)pyrimidin-4(3H)-one]	2 nM	194	
CC[C@H]1COCCN1c1nc(-c2ccc(Nc3nccc(=O)[nH]3)cc2)nc2c1COCC2 [Example 4, (S)-2-(4-(4-(3-ethylmorpholino)-7,8-dihydro-5H-pyrano[4,3-d]pyrimidin-2-yl)phenylamino)pyrimidin-4(3H)-one]	1 nM	30	
C=CC[C@]1(C)OCc2c(N3C[C@H]4CC[C@@H](C3)O4)nc(-c3ccc(NC(=O)NCC)cc3)nc21 [Example 74 eh (S), 1-(4-((S)-7-allyl-4-((1R,5S)-8-oxa-3-azabicyclo[3.2.1]octan-3-yl)-7-methyl-5,7-dihydrofuro[3,4-d]pyrimidin-2-yl)phenyl)-3-ethylurea]		153	
CC[C@H]1COCCN1c1nc(-c2cnc(N)nc2)nc2c1CCCO2 [Example 128, (S)-5-(4-(3-ethylmorpholino)-6,7-dihydro-5H-pyrano[2,3-d]pyrimidin-2-yl)pyrimidin-2-amine]	103 nM	1200	
CCNC(=O)Nc1ccc(-c2nc3c(c(N4CCOCC4)n2)COC(c2ccccn2)C3)cc1 (centres unmarked) [1-ethyl-3-(4-(4-morpholino-7-(pyridin-2-yl)-7,8-dihydro-5H-pyrano[4,3-d]pyrimidin-2-yl)phenyl)urea]	27 nM	914	
CCNC(=O)Nc1ccc(-c2nc(N3CCOC[C@@H]3C)c3c(n2)[C@](C)(CCCO)OC3)cc1 [Example 75 el (S), 1-ethyl-3-(4-((S)-7-(3-hydroxypropyl)-7-methyl-4-((S)-3-methylmorpholino)-5,7-dihydrofuro[3,4-d]pyrimidin-2-yl)phenyl)urea]		62	
CC[C@H]1COCCN1c1nc(-c2ccc(NC(=O)NC3COC3)cc2)nc2c1COCC2 [Example 6, (S)-1-(4-(4-(3-ethylmorpholino)-7,8-dihydro-5H-pyrano[4,3-d]pyrimidin-2-yl)phenyl)-3-(oxetan-3-yl)urea]		180	
C=CC[C@@]1(C)OCc2c(N3C[C@H]4CC[C@@H](C3)O4)nc(-c3ccc(NC(=O)NCC)cc3)nc21 [Example 74 eh (R), 1-(4-((R)-7-allyl-4-((1R,5S)-8-oxa-3-azabicyclo[3.2.1]octan-3-yl)-7-methyl-5,7-dihydrofuro[3,4-d]pyrimidin-2-yl)phenyl)-3-ethylurea]		95	
CCNC(=O)Nc1ccc(-c2nc(N3CCOC[C@@H]3C)c3c(n2)[C@@](C)(CCCO)OC3)cc1 [Example 75 el (R), 1-ethyl-3-(4-((R)-7-(3-hydroxypropyl)-7-methyl-4-((S)-3-methylmorpholino)-5,7-dihydrofuro[3,4-d]pyrimidin-2-yl)phenyl)urea]		322	
CCNC(=O)Nc1ccc(-c2nc3c(c(N4CCOC[C@@H]4C)n2)COC(CO)C3)cc1 (stereo partly drawn) [1-ethyl-3-(4-(7-(hydroxymethyl)-4-((S)-3-methylmorpholino)-7,8-dihydro-5H-pyrano[4,3-d]pyrimidin-2-yl)phenyl)urea]		445	
CCNC(=O)Nc1ccc(-c2nc3c(c(N4C[C@H]5CC[C@@H](C4)O5)n2)COC3)cc1 [Example 99, 1-(4-(4-(8-oxa-3-azabicyclo[3.2.1]octan-3-yl)-5,7-dihydrofuro[3,4-d]pyrimidin-2-yl)phenyl)-3-ethylurea]		154	
CCNC(=O)Nc1ccc(-c2nc(N3CCOC[C@@H]3C)c3c(n2)[C@](C)(CCOc2ccncc2)OC3)cc1 [Example 92 fu^1]		238	
